Source: patent US7868135B2, “Compositions of lipopeptide antibiotic derivatives and methods of use thereof” (priority 2003, dated 2011)
Like-named read-outs stand apart in the source and are kept apart here. Marks after values point to notes of the source that are not given here. Starred links: 1 amine or outer side, 2 acyl side, 3 side chain; linkers in the order of their positions; H or OH if unused. Positions of bridges follow the written chain, without caps; N, C: chain ends. Non-standard residues stand in square brackets, D forms with d. Residues, ends and D or L forms follow the SMILES beside them. ξ: configuration not given here. *: point of attachment. X25 = CC(NC(=O)[C@@H]1CCC(=O)N1)C(N[*:1])C(=O)[*:2]; ξAbu(βξ-NH2) = CC(N[*:3])C(N[*:1])C(=O)[*:2]; Pentadecanoyl = CCCCCCCCCCCCCCC(=O)*; ξAsp(βξ-Me) = CC(C(=O)O)C(N)C(=O)O; ξAbu(3ξ-NH2) = CC(N)C(N)C(=O)O; X32 = CC(C)CCCCCC/C=C\C(=O)*; 12Ado = NCCCCCCCCCCCC(=O)O; Pip = O=C(O)[CH]1CCCCN1; ξD = NC(CC(=O)O)C(=O)O; ξPip = O=C(O)C1CCCCN1; ξV = CC(C)C(N)C(=O)O; ξP = O=C(O)C1CCCN1

Experiments:
[1] = tested on: Streptococcus pyogenes SPY0001 (PenS); experiment: Broad spectrum MIC, Table 17/18 column M; assay type: cell-based; settings: condition M of Table 17, in µg/mL
Procedure: (§1) The antimicrobial lipopeptide derivatives described herein were tested for antimicrobial activity against Gram-positive bacteria as follows. The minimum inhibitory concentrations (MIC) of the antimicrobial lipopeptide derivatives of the invention were determined using NCCLS guidelines M7-A6 (2003) with a slight modification in that doubling serial dilutions were used to dilute the test compounds. The broth phase microdilution method was used. Isolated colonies of Staphylococcus aureus (MSSA) from an 18-24 hour blood agar plate cultures were used to inoculate cation adjusted Mueller-Hinton broth (CAMHB) supplemented with 0.625 mM calcium. […] A negative control containing media alone and a positive growth control containing bacteria with media alone were also included. MICs were determined after incubating the plates at about 37° C. for 24 hours. […] In Tables 1 to 16, R is the core cyclic peptide of amphomycin or aspartocin, which can be in the form of a β-isomer, an anhydro, a dianhydro, or any combination thereof. […] Furthermore, a person of skill in the art will appreciate that all the pounds, or groups of compounds, derived from the various combinations of and substituents shown in Tables 1 to 16, are disclosed by the present the same extent as if each compound or group of compounds was set forth individually.
(§2) Antimicrobial lipopeptide derivatives of the instant invention were tested for antimicrobial activity against Gram-positive bacteria in a variety of media conditions. The […] (MIC) of the antimicrobial lipopeptide derivatives were determined as described in Example 376. The various media used are described in Table 17.

[2] = tested on: Staphylococcus aureus SAU0065 (MRSA); experiment: Broad spectrum MIC, Table 17/18 column H; assay type: cell-based; settings: condition H of Table 17, in µg/mL
Procedure: as §1, §2

[3] = tested on: Staphylococcus aureus SAU0031 (VISA); experiment: Broad spectrum MIC, Table 17/18 column G; assay type: cell-based; settings: condition G of Table 17, in µg/mL
Procedure: as §1, §2

[4] = tested on: Streptococcus pneumoniae SPN0002 (PISP); experiment: Broad spectrum MIC, Table 17/18 column J; assay type: cell-based; settings: condition J of Table 17, in µg/mL
Procedure: as §1, §2

[5] = tested on: Streptococcus pneumoniae SPN0032 (PSSP); experiment: Broad spectrum MIC, Table 17/18 column L; assay type: cell-based; settings: condition L of Table 17, in µg/mL
Procedure: as §1, §2

[6] = tested on: Staphylococcus aureus SAU0017 (MSSA); experiment: Broad spectrum MIC, Table 17/18 columns E, F (+ 0.625 mM calcium; + calcium and 30% bovine serum); assay type: cell-based; settings: in µg/mL; for MIC, media condition E: condition E: + 0.625 mM calcium; for MIC, media condition F: condition F: + calcium and 30% bovine serum
Procedure: as §1, §2

[7] = tested on: Enterococcus faecium EFM0101 (VRE, MDR); experiment: Broad spectrum MIC, Table 17/18 column A; assay type: cell-based; settings: condition A of Table 17, in µg/mL
Procedure: as §1, §2

[8] = tested on: Enterococcus faecalis EFS0004 (VSE); experiment: Broad spectrum MIC, Table 17/18 B, C, D (CAMHB; + 0.625 mM calcium; + calcium and 30% bovine serum); assay type: cell-based; settings: in µg/mL; for MIC, media condition B: condition B: CAMHB; for MIC, media condition C: condition C: + 0.625 mM calcium; for MIC, media condition D: condition D: + calcium and 30% bovine serum
Procedure: as §1, §2

[9] = tested on: Staphylococcus epidermidis SEP0375 (MRSE); experiment: Broad spectrum MIC, Table 17/18 column I; assay type: cell-based; settings: condition I of Table 17, in µg/mL
Procedure: as §1, §2

[10] = tested on: Streptococcus pneumoniae SPN0023 (PRSP); experiment: Broad spectrum MIC, Table 17/18 column K; assay type: cell-based; settings: condition K of Table 17, in µg/mL
Procedure: as §1, §2

[11] = tested on: Staphylococcus aureus (MSSA)
Procedure, shortened: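 Broth microdilution MIC per NCCLS M7-A6 with doubling serial dilutions, in cation-adjusted Mueller-Hinton broth supplemented with 0.625 mM calcium.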

[12] = S. aureus (MSSA), CAMHB supplemented with 0.625 mM calcium, 24 hours at about 37° C., a range = compound tested multiple times

Molecule: CCCCCCCCCCCCCCC(=O)NC(CC(=O)O)C(=O)NC1C(=O)N2CCCCC2C(=O)NC(C(C)C(=O)O)C(=O)NC(CC(=O)O)C(=O)NCC(=O)NC(CC(=O)O)C(=O)NCC(=O)NC(C(C)N)C(=O)NC(C(C)C)C(=O)N2CCCC2C(=O)NC1C (centres unmarked) [Compound 2, C15-Amphomycin]
- MIC, media condition M [1]: 1
- MIC, media condition H [2]: 4
- MIC, media condition G [3]: 8
- MIC, media condition J [4]: 0.125
- MIC, media condition L [5]: 0.5
- MIC, media condition E [6]: 4
- MIC, media condition F [6]: 8
- MIC, media condition A [7]: 4
- MIC, media condition B [8]: 2
- MIC, media condition C [8]: 1
- MIC, media condition D [8]: 64
- MIC, media condition I [9]: 4
- MIC, media condition K [10]: 0.125

Molecule: CCCCCCCCCCCCCCCC(=O)NC(CC(=O)O)C(=O)NC1C(=O)N2CCCCC2C(=O)NC(C(C)C(=O)O)C(=O)NC(CC(=O)O)C(=O)NCC(=O)NC(CC(=O)O)C(=O)NCC(=O)NC(C(C)N)C(=O)NC(C(C)C)C(=O)N2CCCC2C(=O)NC1C (centres unmarked) [Compound 11, C16-Amphomycin]
- MIC, media condition M [1]: 0.25-0.5
- MIC, media condition H [2]: 2-4
- MIC, media condition G [3]: 2-4
- MIC, media condition J [4]: 0.25
- MIC, media condition L [5]: 0.25
- MIC, media condition E [6]: 0.5
- MIC, media condition F [6]: 8-16
- MIC, media condition A [7]: 0.5-1
- MIC, media condition B [8]: 0.5
- MIC, media condition C [8]: 0.5-1
- MIC, media condition D [8]: 64
- MIC, media condition I [9]: 1
- MIC, media condition K [10]: 0.125
- MIC ([11]; 24 h): 0.5 µg/mL

Molecule: CCCCCCCCCCCCCCCCC(=O)NC(CC(=O)O)C(=O)NC1C(=O)N2CCCCC2C(=O)NC(C(C)C(=O)O)C(=O)NC(CC(=O)O)C(=O)NCC(=O)NC(CC(=O)O)C(=O)NCC(=O)NC(C(C)N)C(=O)NC(C(C)C)C(=O)N2CCCC2C(=O)NC1C (centres unmarked) [Compound 12, C17-Amphomycin]
- MIC, media condition M [1]: 0.5
- MIC, media condition H [2]: 1-2
- MIC, media condition G [3]: 4-8
- MIC, media condition J [4]: 0.25
- MIC, media condition L [5]: 0.25-0.5
- MIC, media condition E [6]: 1-2
- MIC, media condition F [6]: 32-64
- MIC, media condition A [7]: 0.5-1
- MIC, media condition B [8]: 0.5-1
- MIC, media condition C [8]: 1
- MIC, media condition D [8]: 64
- MIC, media condition I [9]: 2
- MIC, media condition K [10]: 0.125
- MIC ([11]; 24 h): 1 to 2 µg/mL

Molecule: CCCCCCCCCCCCOc1ccc(C(=O)NC(CC(=O)O)C(=O)NC2C(=O)N3CCCCC3C(=O)NC(C(C)C(=O)O)C(=O)NC(CC(=O)O)C(=O)NCC(=O)NC(CC(=O)O)C(=O)NCC(=O)NC(C(C)NC(=O)CN)C(=O)NC(C(C)C)C(=O)N3CCCC3C(=O)NC2C)cc1 (centres unmarked) [Compound 88, CH3—(CH2)11—O-p-Ph-C(═O)-Amphomycin-9-Gly]
- MIC, media condition M [1]: 0.25-0.5
- MIC, media condition H [2]: 0.5-1
- MIC, media condition G [3]: 2-4
- MIC, media condition J [4]: 0.25
- MIC, media condition L [5]: 0.25
- MIC, media condition E [6]: 0.5-1
- MIC, media condition F [6]: 32-64
- MIC, media condition A [7]: 0.25-0.5
- MIC, media condition B [8]: 0.5-1
- MIC, media condition C [8]: 0.25-0.5
- MIC, media condition D [8]: >64
- MIC, media condition I [9]: 0.5-1
- MIC, media condition K [10]: 0.125

Molecule: CC(C)CCCCCC/C=C\C(=O)NC(CC(=O)O)C(=O)NC1C(=O)N2CCCCC2C(=O)NC(C(C)C(=O)O)C(=O)NC(CC(=O)O)C(=O)NCC(=O)NC(CC(=O)O)C(=O)NCC(=O)NC(C(C)N)C(=O)NC(C(C)C)C(=O)N2CCCC2C(=O)NC1C (stereo not drawn) [Compound 364, (10-Methyl-Undec-2-Enoyl)-Amphomycin] (X32-D[ξAbu(βξ-NH2)][Pip][ξAsp(βξ-Me)]DGDG[ξAbu(3ξ-NH2)]VP; lactam 2-C; configuration not given here)
- MIC ([11]; 24 h): 4 to 8 µg/mL

Molecule: CCCCCCCCCCCCCCC(=O)NC(CC(=O)O)C(=O)NC1C(=O)N2CCCCC2C(=O)NC(C(C)C(=O)O)C(=O)NC(CC(=O)O)C(=O)NCC(=O)NC(CC(=O)O)C(=O)NCC(=O)NC(C(C)NC(=O)[C@@H]2CCC(=O)N2)C(=O)NC(C(C)C)C(=O)N2CCCC2C(=O)NC1C (stereo partly drawn) [Compound 373] (Pentadecanoyl-[ξD][ξAbu(βξ-NH2)][ξPip][ξAsp(βξ-Me)][ξD]G[ξD]G[X25][ξV][ξP]; lactam 2-C)
- MIC ([11]; 24 h): >64 µg/mL

Molecule: CC(=O)NCCCCCCCCCCCC(=O)NC(CC(=O)O)C(=O)NC1C(=O)N2CCCCC2C(=O)NC(C(C)C(=O)O)C(=O)NC(CC(=O)O)C(=O)NCC(=O)NC(CC(=O)O)C(=O)NCC(=O)NC(C(C)N)C(=O)NC(C(C)C)C(=O)N2CCCC2C(=O)NC1C (stereo not drawn) [Compound 374, (12-Acetylaminododecanoyl)-Amphomycin] (Ac-[12Ado]D[ξAbu(βξ-NH2)][Pip][ξAsp(βξ-Me)]DGDG[ξAbu(3ξ-NH2)]VP; lactam 3-C; configuration not given here; N-terminus assumed)
- MIC ([11]; 24 h): >64 µg/mL

Molecule: CC(C)C1NC(=O)C(C(C)N)NC(=O)CNC(=O)C(CC(=O)O)NC(=O)CNC(=O)C(CC(=O)O)NC(=O)C(C(C)C(=O)O)NC(=O)C2CCCCN2C(=O)C(NC(=O)C(CC(=O)O)NC(=O)CCCCCCCCCCCN)C(C)NC(=O)C2CCCN2C1=O (stereo not drawn) [Compound 375, (12-Aminododecoyl)-Amphomycin] (H-[12Ado]D[ξAbu(βξ-NH2)][Pip][ξAsp(βξ-Me)]DGDG[ξAbu(3ξ-NH2)]VP; lactam 3-C; configuration not given here)
- MIC ([11]; 24 h): >64 µg/mL

Molecule: (2-Dodecanoylamino-Thiazol-4-yl)Acetyl-Amphomycin [Compound 337]
- MIC [11, 12]: 0.25 to 1 µg/mL

Molecule: (12-Methyl-Tetradec-2-Enoyl)-Aspartocin-9-Sar [Compound 371]
- MIC [11, 12]: 0.5 µg/mL

Molecule: C12-Amphomycin-9-gDab [Compound 138]
- MIC [11, 12]: 138/32 μg/mL

Molecule: C13-Amphomycin-9-gDab [Compound 135]
- MIC [11, 12]: 135/8 μg/mL

Molecule: C14-Amphomycin-9-gDab [Compound 139]
- MIC [11, 12]: 139/4 μg/mL

Molecule: C15-Amphomycin-9-(Carbamoyl-Leu) [Compound 204]
- MIC [11, 12]: 16 µg/mL

Molecule: C17-Amphomycin-Gly-Lys [Compound 142]
- MIC [11, 12]: 142/32 μg/mL

Molecule: CH3—(CH2)7—NH—C(═O)-(M-Phenylacetyl)-Amphomycin [Compound 306]
- MIC [11, 12]: 16 µg/mL

Molecule: CH3—(CH2)7—NH—C(═O)-(p-Phenylacetyl)-Amphomycin [Compound 288]
- MIC [11, 12]: 16 µg/mL

Molecule: CH3—(CH2)10—NH—C(═O)-(M-Phenylacetyl)-Amphomycin [Compound 362]
- MIC [11, 12]: 0.5 µg/mL

Molecule: CH3—(CH2)10—NH—C(═O)-(p-Phenylacetyl)-Amphomycin [Compound 290]
- MIC [11, 12]: 1 µg/mL

Molecule: CH3—(CH2)13—NH—C(═O)-(M-Phenylacetyl)-Amphomycin [Compound 292]
- MIC [11, 12]: 1 µg/mL

Molecule: CH3—(CH2)13—NH—C(═O)-(p-Phenylacetyl)-Amphomycin [Compound 289]
- MIC [11, 12]: 2 µg/mL

Molecule: CH3—(CH2)15—NH—C(═O)-(M-Phenylacetyl)-Amphomycin [Compound 302]
- MIC [11, 12]: 4 µg/mL

Molecule: CH3—(CH2)15—NH—C(═O)-(p-Phenylacetyl)-Amphomycin [Compound 287]
- MIC [11, 12]: 4 µg/mL

Molecule: Lys-Gly-Amphomycin-9-C13 [Compound 332]
- MIC [11, 12]: >64 µg/mL

Molecule: β-Isomer of (8-Dodecyloxy-Quinoline-2-Carbonyl)-Amphomycin [Compound 340]
- MIC [11, 12]: 4 µg/mL

Molecule: β-Isomer of CH3—(CH2)10—NH—C(═O)-(GABA)-Amphomycin [Compound 330]
- MIC [11, 12]: >64^† μg/mL

Molecule: β-Isomer of CH3—(CH2)13—NH—C(═O)-Amphomycin [Compound 329]
- MIC [11, 12]: 4^† μg/mL
